The EC50 is the concentration at which the effect is half-maximal. Low readings indicate an effect from little substance, high ones a need for much substance.

Substitutions are numbered along the chain they refer to. Several values for one entry are separate records, joined by “and”; a condition that tells them apart may be missing. Identical values can stand only once. Like-named read-outs stand apart in the source and are kept apart here.

The target of test [1] is T1, GluE1αA wildtype receptor (Trichoplax adhaerens, UniProt B3SAW0).
T1 sequence (B3SAW0 1-341): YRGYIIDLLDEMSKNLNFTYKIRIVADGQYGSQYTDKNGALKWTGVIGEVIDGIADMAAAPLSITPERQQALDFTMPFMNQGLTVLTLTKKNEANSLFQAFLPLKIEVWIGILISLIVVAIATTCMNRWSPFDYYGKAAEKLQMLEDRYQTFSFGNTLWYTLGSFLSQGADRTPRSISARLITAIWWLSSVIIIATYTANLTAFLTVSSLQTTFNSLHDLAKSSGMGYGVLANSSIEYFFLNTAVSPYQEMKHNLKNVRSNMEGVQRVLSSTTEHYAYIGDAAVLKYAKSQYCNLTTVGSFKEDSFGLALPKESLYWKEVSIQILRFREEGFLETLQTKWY
The following applies: wild type, 10 mM glycine.

The target in test [2] is T2, GluE1αA m3 variant (Trichoplax adhaerens, UniProt B3SAW0, F306Y/I236T/S234G).
T2 sequence (B3SAW0 1-341 S234G/I236T/F306Y): T1 sequence (B3SAW0 1-341) with S234G, I236T, F306Y
The following applies: 10 mM glutamate.

The target in test [3] is T3, T. adhaerens GluE1αA receptor (wildtype) (Trichoplax adhaerens, UniProt B3SAW0). Put plainly: whole-cell patch clamp, agonist-evoked currents in CHO-K1 cells. Type of test: cell-based. (In patch-clamp work, channel activity is measured electrically.)
The target in test [4] is T3, T. adhaerens GluE1αA receptor (wildtype). The following applies: 2 s pulse of 3 mM glycine, wash of increasing duration, 2 s test pulse; single exponential; n = 10. The source says:
(§1) The cDNA of the T. adhaerens GluE1αA receptor was cloned into the mammalian expression vector pIRES2-EGFP, using a 5’ nested primer that inserted a mammalian consensus Kozak sequence of […] (Supplementary Table 5). Several mutants/variants of this receptor where also prepared via site directed mutagenesis using standard procedures and primers listed in Supplementary Table 5. For electrophysiological comparisons, we commissioned GenScript (USA) to synthesize the cDNA of the human GluA2 […] receptor (NCBI accession number NP_001077088.2), which was cloned into the pIRES2-EGFP vector with a Kozak sequence flanking the start codon and restriction enzymes SalI and BamHI at the 5’ and 3’ ends of the cDNA, respectively. Receptor cDNAs in the various pIRES2 constructs were transfected into Chinese Hamster Ovary-K1 (CHO-K1; Sigma) cells cultured in Dulbecco’s Modified Eagle Medium Nutrient Mixture F-12 (DMEM/F12) supplemented with 10% Fetal Bovine Serum (FBS) and 1% penicillin-streptomycin at 37°C. Transfections were done with 2 μg of plasmid vector using the transfecting reagent PolyJet^TM (SignaGen Laboratories, USA) according to the manufacturer’s instructions and plated onto glass coverslips in 35 mm dishes the next day. Transfected cells were incubated at 28°C for 2 to 4 days, then coverslips were transferred to a new 60 mm dish with 5 mL of external recording solution. […] Agonists and pharmacological compounds used in this study were dissolved in corresponding external solutions. […] Patch pipettes were pulled using a P-1000 micropipette puller (Sutter, USA), from thick-walled borosilicate tubing (1.5 and 0.86 outer and inner diameter, respectively), to a resistance of between 1 and 6 megaohms.

Test [5] deals with GluE1αA m2 variant (S653G, I655T). Format: cell-based, Trichoplax adhaerens.
Source text: (§2) As noted, a model has been put forward that defines iGluR ligand specificity based on a set of key amino acids in the LBD of iGluRs[11]. […] To the best of our knowledge, whether these few positions are indeed solely responsible for ligand specificity, and moreover, can be altered to switch specificity for natural ligands, has not been experimentally tested. […] We also created a triple mutant, with an additional phenylalanine to tyrosine mutation at position 732 (F732Y; m3 variant), to make the T. adhaerens epsilon receptor resemble GluN2A and GluA2 receptors from human, reasoning that this mutation might enhance glutamate sensitivity. We also generated a single F732Y mutant (m1 variant), to assess the contribution of this amino acid to ligand specificity in isolation.
as §1

In test [6] the test system is GluE1αA m3 variant (S653G, I655T, F732Y). Type of test: cell-based, Trichoplax adhaerens. The following applies: m3.
Source text: as §2, §1

Test [7] deals with GluE1αA m1 variant (F732Y). Type of test: cell-based, Trichoplax adhaerens. The settings on record: for normalized current (dose response), Avg / normalized current (dose response), single recording / normalized peak inward current, Avg / normalized peak inward current, single recording: m1; for normalized peak inward current, Avg / normalized peak inward current, single recording: ligand 10 mM, normalized to glycine.
Source text: as §2, §1

[8] abbreviates: ligand 10 mM, normalized to glutamate.
Setting [9] is: wild type, ligand 10 mM, normalized to glycine.
[10] abbreviates: m2, ligand 10 mM, normalized to glutamate.

`N#Cc1cc2[nH]c(=O)c(=O)[nH]c2cc1[N+](=O)[O-]` [CNQX, 6-cyano-7-nitroquinoxaline-2,3-dione]: the “current normalized to peak amplitude in the absence of CNQX, Avg” value in test [1] (CNQX 1 µM) is recorded as 0.99; in test [1] (CNQX 10 µM), 0.86; in test [1] (CNQX 100 µM), 0.29; in test [2] (CNQX 1 µM) it was 1.22; in test [2] (CNQX 10 µM), 0.42; in test [2] (CNQX 100 µM), 0.08. Moreover, the “current normalized to peak amplitude in the absence of CNQX, single recording” value in test [1] (CNQX 1 µM) was 1.07 and 0.91 and 0.98 and 1.00 and 1.01 and 0.97 and 0.94; in test [1] (CNQX 10 µM), 0.80 and 0.79 and 0.93 and 0.89 and 0.85 and 0.87; in test [2] (CNQX 1 µM), 1.09 and 1.17 and 1.15 and 0.98 and 1.22 and 1.35 and 1.57; in test [2] (CNQX 10 µM) it was 0.44 and 0.38 and 0.42 and 0.52 and 0.35.

Regarding `NCC(=O)O` [glycine], the “activation of ligand-gated current” value in test [3] is recorded as “activated”. Moreover, the “normalized peak inward current, Avg” value in test [3] was 1.02 and 1.00; in test [5], 0.37 and 0.38; in test [6] (agonist 1 mM), 0.0155; in test [6] (setting [8]), 0.0446; in test [7], 1.00. Moreover, the sensitivity to agonist entry in test [3] is on record as “robust currents”. Moreover, the “time constant of recovery from desensitization (τ)” value in test [4] turned out to be 184 ± 45 ms. The “normalized peak inward current, single recording” value in test [5] was 0.36 and 0.37 and 0.44 and 0.40 and 0.28 and 0.49 and 0.42 and 0.34; in test [7] it was 0.93 and 1.04 and 1.03 and 0.96. Besides, the EC50 in test [7] (m1 (F732Y) variant, dose response of normalized current) is 300 ± 40 µM. The “normalized current (dose response), Avg” value stood at 0.00429 in test [7] (glycine 0.03 mM); 0.0331 in test [7] (glycine 0.1 mM); 0.50 in test [7] (glycine 0.3 mM); 0.98 in test [7] (glycine 1 mM); 0.99 in test [7] (glycine 3 mM); 0.85 in test [7] (glycine […]). Besides, the “normalized current (dose response), single recording” value was 0.00434 and 0.00425 in test [7] (glycine 0.03 mM); 0.36 and 0.35 and 0.56 and 0.51 and 0.57 and 0.65 and 0.62 in test [7] (glycine 0.3 mM); 0.97 and 1.00 and 0.96 in test [7] (glycine 1 mM); 1.00 and 0.99 and 0.96 in test [7] (glycine 3 mM).

As to `N[C@H](CO)C(=O)O` [D-serine], the “activation of ligand-gated current” value in test [3] (ligand tested on its own at 10 mM) was “activated”. The “normalized peak inward current, Avg” value in test [3] (setting [9]) is 0.95; in test [5] (setting [10]), 0.06; in test [6] (setting [8]) it was 0.19; in test [7], 0.76. Also, the “normalized peak inward current, single recording” value in test [3] (setting [9]) was 0.93 and 1.00 and 0.86 and 0.89; in test [5] (setting [10]) it was 0.0548 and 0.0529 and 0.07 and 0.06 and 0.05; in test [7], 0.75 and 0.83 and 0.85 and 0.77 and 0.60. The “normalized current (dose response), Avg” value was 0.0178 in test [3] (wildtype, ligand 0.03 mM); 0.20 in test [3] (wildtype, ligand 0.10 mM); 0.78 in test [3] (wildtype, ligand 0.30 mM); 0.97 in test [3] (wildtype, ligand 1.00 mM). For the same compound, the “normalized current (dose response), single recording” value is 0.63 and 0.81 and 0.90 and 0.84 and 0.69 and 0.70 in test [3] (wildtype, ligand 0.30 mM); 1.00 and 0.99 and 0.87 and 0.90 in test [3] (wildtype, ligand 1.00 mM). The same compound had an EC50 in test [3] (wildtype, monophasic dose-response fit of normalized whole-cell current) of 190 ± 40 µM.

The values are drawn from PMC12226733, “Evolution of iGluR ligand specificity, polyamine regulation, and ion selectivity inferred from a placozoan epsilon receptor” (Communications Biology, 2025).
